Several values for one entry are separate records, joined by “and”; a condition that tells them apart may be missing. Equal values may be shown once.

The values that follow come from publication PMC12867150, “A fungi-derived cyclic peptide enhances Th9-mediated antitumor immunity by targeting ZAP70 and SREBP1” (The Journal of Clinical Investigation, 2025).

For the test, the system named is Th0 cells. Nature of the test: Th0 polarization, IFN-γ by flow cytometry (Figure 1E). It counts as cell-based, mouse. As for the experimental part: Naive CD4^+ T cells were isolated from the spleens of C57BL/6J or CD45.1^+ OT-II mice using the MojoSort Mouse CD4 Naive T Cell Isolation Kit (BioLegend, catalog 480040), following the manufacturer’s protocol. Purified cells were cultured in RPMI-1640 medium supplemented with 10% FBS, 1% penicillin-streptomycin, and 0.1% β-mercaptoethanol (Gibco, catalog 21985023).
T cell polarization was initiated under plate-bound anti-CD3 (2 μg/mL, clone 17A2, BioXCell, catalog BE0002) and soluble anti-CD28 (1 μg/mL, clone 37.51, BioXCell, catalog BE0015-1) stimulation, with the addition of cytokines and neutralizing antibodies specific to each subset. For Th9 cells, these included IL-4 (10 ng/mL, Peprotech, catalog 400-04), TGF-β (1 ng/mL, EPOTO Biotech, catalog HF-2021), anti–IL-12 (5 μg/mL, clone C17.8, BioXCell, catalog BE0051), and anti–IFN-γ (10 μg/mL, clone XMG1.2, BioXCell, catalog BE0055); for Th1 cells, these included IL-12 (10 ng/mL, GenScript, catalog Z03211-50) and anti–IL-4 (5 μg/mL, clone 11B11, BioXCell, catalog BE0045); for Th2 cells, these included IL-4 (50 ng/mL), anti–IFN-γ (20 μg /mL), anti–IL-12 (5 μg/mL), Th17 cells: IL-6 (20 ng/mL, EPOTO Biotech, catalog MF-1006), TGF-β (1 ng/mL), IL-1β (10 ng/mL, Peprotech, catalog AF-211-11B), anti–IFN-γ (10 μg/mL), anti–IL-12 (5 μg/mL), and anti–IL-4 (5 μg/mL); and for Tregs, these included TGF-β (3 ng/mL). […]
In general terms: In flow cytometry, cells or beads pass a laser one at a time.

For anteiso-C15 Leu7 surfactin [EpA], for the setting “EpA 10 μM, individual replicates, n = 4”, the “IFN-γ expression under Th0 polarization” value is 31 and 32.2 and 35 and 26.8. Besides, the “effect on Th0 polarization” value (result in words) is “did not affect”.
